Tests used:
[1] = Water solubility of brightener; assay type: physicochemical
From the text: Brighteners should have some water solubility for easy incorporation into the fabric conditioning composition. […] Fluorescent whitening agents, generally due to their low water solubility, are difficult to incorporate into liquid fabric conditioning compositions. Often it is advantageous to post-add brighteners to a finished base product. One convenient way to do this is to make a brighteners premix.

[2] = Chemical stability of brightener in acidic product matrix; assay type: physicochemical; conditions: biodegradable fabric conditioning compositions, pH from about 3 to about 4

water solubility ([1]; 25 C): 2.5%
water solubility ([1]; 25° C.): about 2.5 weight percent
chemical stability in the acidic product matrix [2]: better than some other brighteners
Compound: O=S(=O)(O)c1ccccc1C=Cc1ccc(-c2ccc(C=Cc3ccccc3S(=O)(=O)O)cc2)cc1.[Na].[Na] [Tinopal CBS-X, Disodium 4,4′-bis-(2-sulfostyryl) biphenyl]

Source: patent US7235518B2, “Fabric care compositions comprising hueing dye” (The Procter & Gamble Company, priority 2004, dated 2007)
